# Counter-ions that a name gives are not always drawn. Like-named read-outs stand apart in the source and are kept apart here.
# Key:
# [1] = tested on: Isolated Rat Bladder Strips; experiment: Inhibition of contractions in isolated rat bladder strips; format: cell-based; settings: for IC50: contractions enhanced by additional 15 mM KCl, read-out: IC50 /μM Bladder (B); for IC50 (A)/ IC50 (B): ratio aorta/bladder, indication of selectivity
# Description: Sprague-Dawley rats (150-200 g) are rendered unconscious by CO2 asphyxiation and then euthanized by cervical dislocation. […] The bladder is opened and then cut into strips 1-2 mm in width and 7-10 mm in length. The strips are subsequently suspended in a 10 mL tissue bath under an initial resting tension of 1.5 g. The strips are held in place by two surgical clips one of which is attached to a fixed hook while the other is attached to an isometric force transducer. […] The carbachol is then washed out and the tissue allowed to relax to its resting level of activity. Following a further 30 min period of recovery an additional 15 mM KCl are introduced into the tissue bath. […] Following stabilization of this enhanced level of contractile activity, incremental increases in the concentration of test compound or vehicle are introduced into the tissue bath. Contractile activity is measured for each compound or vehicle concentration during the last minute of a 30 minute challenge.
# [2] = tested on: Aorta; experiment: Inhibition of contractions in aorta (indication of selectivity); format: cell-based; settings: aorta
# [3] = target: T1, calcium-dependent large conductance potassium channels (maxi K^+) (Rattus norvegicus, UniProt Q62976); experiment: Potassium channel activation, whole cell patch clamp in isolated rat detrusor cells; format: cell-based; settings: glyburide 5 μM added to the superfusate; data not shown
# T1 construct: endogenous in cells; host or cells: freshly isolated rat detrusor (urinary bladder smooth muscle) cells
# T1 sequence (Q62976 whole entry): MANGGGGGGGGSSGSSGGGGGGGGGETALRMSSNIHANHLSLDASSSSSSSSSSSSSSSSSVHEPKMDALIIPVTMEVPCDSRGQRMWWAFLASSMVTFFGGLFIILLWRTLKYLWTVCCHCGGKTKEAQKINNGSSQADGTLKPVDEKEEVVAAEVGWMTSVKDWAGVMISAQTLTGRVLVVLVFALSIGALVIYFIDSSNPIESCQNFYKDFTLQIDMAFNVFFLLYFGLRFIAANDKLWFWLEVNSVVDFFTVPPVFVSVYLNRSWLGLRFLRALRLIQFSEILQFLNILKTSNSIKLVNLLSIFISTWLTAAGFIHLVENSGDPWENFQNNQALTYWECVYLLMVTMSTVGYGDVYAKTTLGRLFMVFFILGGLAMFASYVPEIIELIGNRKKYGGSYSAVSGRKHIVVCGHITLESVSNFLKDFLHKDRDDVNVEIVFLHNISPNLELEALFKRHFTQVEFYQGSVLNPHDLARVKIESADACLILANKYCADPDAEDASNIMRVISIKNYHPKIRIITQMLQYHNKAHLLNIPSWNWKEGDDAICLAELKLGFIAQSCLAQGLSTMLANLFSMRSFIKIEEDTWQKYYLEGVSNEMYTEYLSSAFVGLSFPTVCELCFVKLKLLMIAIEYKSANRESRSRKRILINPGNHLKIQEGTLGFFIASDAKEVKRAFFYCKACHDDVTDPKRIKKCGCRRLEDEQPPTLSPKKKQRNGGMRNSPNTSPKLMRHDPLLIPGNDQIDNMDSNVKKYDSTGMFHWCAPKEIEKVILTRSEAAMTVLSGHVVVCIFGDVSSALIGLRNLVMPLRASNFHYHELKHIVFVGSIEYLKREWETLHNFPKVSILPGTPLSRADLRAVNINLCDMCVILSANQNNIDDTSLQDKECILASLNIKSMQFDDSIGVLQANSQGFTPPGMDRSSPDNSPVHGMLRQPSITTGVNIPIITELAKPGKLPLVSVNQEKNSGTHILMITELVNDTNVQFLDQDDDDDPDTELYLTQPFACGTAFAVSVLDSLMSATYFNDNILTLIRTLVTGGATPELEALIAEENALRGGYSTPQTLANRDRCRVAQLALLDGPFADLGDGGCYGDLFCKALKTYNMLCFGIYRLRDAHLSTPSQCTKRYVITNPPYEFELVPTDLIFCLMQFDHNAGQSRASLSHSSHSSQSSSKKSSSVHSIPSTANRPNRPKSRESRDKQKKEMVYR
# T1 sequence (P97678 whole entry partner): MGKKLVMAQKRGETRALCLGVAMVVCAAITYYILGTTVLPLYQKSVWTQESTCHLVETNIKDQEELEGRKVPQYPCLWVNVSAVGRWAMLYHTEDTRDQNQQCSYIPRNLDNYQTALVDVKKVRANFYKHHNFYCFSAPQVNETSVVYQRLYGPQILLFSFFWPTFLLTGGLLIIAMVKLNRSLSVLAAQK
# Description: Potassium channel activation by compounds of the present invention was established by examining the effect of the compound of Example 1 on calcium-dependent large conductance potassium channels (maxi K^+) as follows:
# Rat detrusor cells were isolated in a manner previously described for guinea-pig detrusor (Sheldon and Argentieri, 1995). Male Sprague-Dawley rats (200-400 grams) were euthanized by CO2 inhalation and exsanguination. Their urinary bladders were rapidly removed and placed in 37° C. physiological solution with the following composition (mM): Na glutamate (80.0), NaCl (54.7), KCl (5.0), NaHCO3 (25.0), MgCl2.2H2 O (2.5), D-glucose (11.8) and CaCl2 (0.2) gassed with CO2 --O2, 95%/5% for a final pH of 7.4. The dome of the bladder was isolated from the trigon region and the mucosa was removed. This tissue was then cut into 2-3 mm wide strips and placed in fresh buffer for 1 hour. Tissues were then transferred into 10.0 ml of an isolation buffer containing the above composition plus collagenase type VIII (1.0 mg/ml) and pronase (0.25 mg/ml). After 10 minutes the isolation buffer was replaced with fresh isolation buffer for an additional 10 min. […]
# Whole cell recordings were made using broken patch assess. […] After stability was achieved control currents were recorded. […] Currents were recorded for 5 to 10 minutes or until compound effects reached steady state. […]
# [4] = tested on: hypertrophied bladder (detrussor) smooth muscle; experiment: Inhibition of spontaneous contractions in vivo, hypertrophied rat bladder model; settings: 30 mg/kg i.v.
# From the text: In addition, we tested the ability of compounds to inhibit the hyperactivity of hypertrophied bladder (detrussor) smooth muscle in conscious female rats with hypertrophied bladders and thereby alleviate urinary incontinence in rats according to the following protocol described by Malmgrem (A. Malmgrem, K. E. Andersson, C. Sjogren, P. O. Andersson, Effects of Pinacidil and Cromakalim (BRL 34915) on Bladder Function in Rats with Detrusor Instability, J. Urol. 142:1134, 1989.):
# Female Sprague-Dawley rats, ranging in weight from 190-210 g are used. Up to 25 animals are prepared each time. After development of bladder hypertrophy 4-8 animals are used per test.
# Compounds are dissolved in PEG-200 and administered by gastric gavage or intraveneously in a volume of 5 mL/kg. For primary screening all drugs are administered at the arbitrary dose of 10 mg/kg p.o. to groups of 4 rats.
# The animals are anesthetized with halothane. […]
# The following urodynamic variables are recorded:
# The mean value of each variable is calculated before and after compound administration. For each compound the changes in the variables measured are compared to the values obtained before treatment and expressed as percent inhibition. The data are also subjected to 2-way analysis of variance to determine significant (p<0.05) changes in the variable measured. […]
# [5] = Rattus norvegicus, isolated rat bladder strips
# [6] = isolated rat bladder strips, lithium salt hemihydrate
SMILES,"IC50 [1, 5] [µM]",IC50 (A)/ IC50 (B) [1],IC50 [2] [µM],also measured
"COc1ccc(NC(=O)/C(C)=C/c2ccc(C(F)(F)F)cc2)c(C(=O)O)c1 [Example 13, (E)-5-Methoxy-2-[2-methyl-3-(4-trifluoromethyl-phenyl)-acryloylamino]-benzoic acid]",9.6 ± 7.4,,,
"O=C(/C=C/c1ccc(Br)cc1)Nc1ccccc1C(=O)O [Example 3, (E)-2-[3-(4-Bromo-phenyl)-acryloylamino]-benzoic acid]",4.9 ± 2.6,11,53.5 ± 7,
"C/C(=C\c1ccc(C(F)(F)F)cc1)C(=O)Nc1cc(Cl)ccc1C(=O)O [Example 10, (E)-4-Chloro-2-[2-methyl-3-(4-trifluoromethyl-phenyl)-acryloylamino]-benzoic acid]",,4.81,6.93 ± 2.4,IC50 ([1]; isolated rat bladder strips): 1.44 ± 0.85 µM
"COc1ccc(/C=C/C(=O)Nc2ccccc2C(=O)O)cc1OC [Tranilast, reference compound]",14.4 ± 4.5,,15.6 ± 8.96,"smooth muscle relaxant potency and bladder selectivity ([1]; bladder tissue over vascular tissue, Table 1): not to be a potent or bladder selective smooth muscle relaxant"
"O=C(CCc1ccc(C(F)(F)F)cc1)Nc1ccccc1C(=O)O [Example 2, 2-[3-(4-Trifluoromethyl-phenyl)-propionylamino]-benzoic acid]",14.1 ± 1.77,8.4,118 ± 27.6,
"O=C(/C=C/c1ccc(C(F)(F)F)cc1)Nc1ccccc1C(=O)O [Example 5, (E)-2-[3[(4-Trifluoromethyl-phenyl)-acryloylamino]-benzoic acid lithium salt hemihydrate]",,,,"IC50 [1, 6]: 5.3 ± 2.8 µM; IC50 (A)/ IC50 (B) ([1]; lithium salt hemihydrate): 27.5; IC50 ([2]; lithium salt hemihydrate): 146 ± 49 µM"
"C/C(=C\c1ccc(C(F)(F)F)cc1)C(=O)Nc1ccccc1C(=O)O [Example 1, Step 3, (E)-2-[2-Methyl-3-(4trifluoromethyl-phenyl)-acryloylamino]-benzoic acid]",3.7 ± 2.1,16.5,61.2 ± 9.2,
"CCN(CC)C(=O)COC(=O)c1ccccc1NC(=O)/C(C)=C/c1ccc(C(F)(F)F)cc1 [Example 14, (E)-2-[2-Methyl-3-(4-trifluoromethyl-phenyI)-acryloylamino]-benzoic acid diethylcarbamoylmethyl ester]",10.8 ± 0.6,,,"inhibition at 30 µM ([1]; 30 μM, isolated rat bladder strips, read-out: I = Percent inhibition at 30 μM): 35.6 ± 5%"
"C/C(=C\C(=O)Nc1ccccc1C(=O)O)c1ccc(C(F)(F)F)cc1 [Example 7, (E)-2-[3-(4-Trifluoromethyl-phenyl)-but-2-enoylamino]-benzoic acid sodium salt]",,,,IC50 ([1]; isolated rat bladder strips): 7.4 ± 4 µM
"C=C(CC(=O)Nc1ccccc1C(=O)O)c1ccc(C(F)(F)F)cc1 [Example 6, 2-[3-(4-Trifluoromethyl-phenyl)-but-3-enoylamino]-benzoic acid]",18.1 ± 4.2,,,
"C/C(=C\c1ccc(C(F)(F)F)cc1)C(=O)Nc1cc(Cl)ccc1C(=O)O [Example 11, (E)-4-Chloro-2-[2-methyl-3-(4-trifluoromethyl-phenyl)-acryloylamino]-benzoic acid lithium salt hemihydrate]",,,,"IC50 [1, 6]: 3.45 ± 0.75 µM"
O=C(/C=C/c1ccc(C(F)(F)F)cc1)Nc1ccccc1C(=O)O [Example 4],3.37 ± 0.59,11.7,39.5 ± 12,
C/C(=C\c1ccc(C(F)(F)F)cc1)C(=O)Nc1ccc(Cl)cc1C(=O)O [Example 8],,3.58,4.23 ± 0.66,IC50 ([1]; isolated rat bladder strips): 1.18 ± 0.45 µM
"COc1ccc(Cl)cc1C(=O)NCCc1ccc(S(=O)(=O)NC(=O)NC2CCCCC2)cc1 [glyburide, reference compound]",,,,effect of glyburide on outward current [3]: no effect
"C/C(=C\c1ccc(C(F)(F)F)cc1)C(=O)Nc1ccc(Cl)cc1C(=O)O [Example 9, (E)-5-Chloro-2-[2-methyl-3-(4-trifluoromethyl-phenyl)-acryloylamino]-benzoic acid lithium salt hemihydrate]",,,,"IC50 [1, 6]: 0.52 ± 0.24 µM; IC50 (A)/ IC50 (B) ([1]; lithium salt hemihydrate): 5.31; % Red (F): percent reduction in the total number of spontaneous contractions [4]: -71 ± 6%; IC50 ([2]; lithium salt hemihydrate): 2.76 ± 1.63 µM"
"C/C(=C\c1ccc(C(F)(F)F)cc1)C(=O)Nc1ncccc1C(=O)O [Example 12, (E)-2-[2-Methyl-3-(4-trifluoromethyl-phenyl)-acryloylamino]-nicotinic acid]",11.4 ± 3.8,,,
